# Patent publication US20030171379A1, “Methods of treating, preventing, or inhibiting inflammation with Mactanamide compounds” (priority 2001, published 2003)
# Key:
# [1] = system: RTX-induced inflammation (edema) of the mouse ear; assay: Resiniferatoxin (RTX) assay, mouse ear edema; format: in vivo; conditions: topical in acetone, 50 ug/ear Mactanamide with 0.1 ug RTX per ear, 30 minutes, left ear weight minus right ear (acetone) weight
# Description: A control, acetone, was applied to all right ears. After a 30 minute incubation, the mice were sacrificed, the ears removed, and bores taken and weighed.
# Edema was measured by subtracting the weight of the right ear (control) from the weight of the left ear. The results were recorded as % decrease (inhibition) or % increase (potentiation) in edema relative to the control group edema.
# [2] = system: PMA-induced inflammation (edema) of the mouse ear; assay: Inhibition of mouse ear edema (PMA mouse ear model); format: in vivo; conditions: topical in acetone, 25 ug/ear Mactanamide with 2 ug/ear PMA, 3 hours 20 minutes, left ear weight minus right ear (acetone) weight
# Description: The efficacy of Mactanamide compounds as an anti-inflammatory agent was established by the following assay. Mactanamide was topically applied in acetone to the inside pinnae of the ears of mice in a solution comprising an edema-causing irritant, phorbol 12-myristate 13-acetate (PMA). Specifically, 2 μg/ear of PMA alone or in combination with 25 μg/ear of Mactanamide was applied to the left ears (5 mice per treatment group) and acetone was applied to all right ears. After 3 hours, 20 minutes incubation, the mice were sacrificed, the ears removed and bores taken and weighed. Edema was measured by subtracting the weight of the right ear (acetone control) from the weight of the left ear (treated). Results were recorded as % decrease (inhibition) or % increase (potentiation) in edema relative to the PMA control group edema.
smiles,measurement,setting,value
CN1C(=O)C(Cc2c(O)cccc2O)NC(=O)C1Cc1ccccc1 (centres unmarked) [Mactanamide],Edema (mg ± SEM),[1],0.9 ± 0.5 mg
same,Edema (mg ± SEM),[2],2.6 ± 1.1 mg
